From ChEMBL document CHEMBL1140075 (J Med Chem, 2008) come the findings set out here.

The source made the active and inactive calls. No cut-off for these calls is given here. Positions of bridges follow the written chain, without caps; N, C: chain ends. Residues, ends and D or L forms follow the SMILES beside them.

Data set [1] has as its target Neuronal acetylcholine receptor subunit alpha-7 (Rattus norvegicus, UniProt Q05941).
The target of data set [2] is Acetylcholine-binding protein (Lymnaea stagnalis, UniProt P58154).
Acetylcholine-binding protein, sequence (P58154 whole entry): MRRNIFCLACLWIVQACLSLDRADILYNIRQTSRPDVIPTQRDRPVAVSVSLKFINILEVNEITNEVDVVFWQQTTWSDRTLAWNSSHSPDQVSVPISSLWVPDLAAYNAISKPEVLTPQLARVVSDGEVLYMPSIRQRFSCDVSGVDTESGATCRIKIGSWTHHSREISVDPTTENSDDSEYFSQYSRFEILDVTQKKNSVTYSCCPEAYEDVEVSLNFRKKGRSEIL
Data set [3] addresses Neuronal acetylcholine receptor subunit alpha-7 (Rattus norvegicus) (UniProt Q05941). The data set can be described thus: Activity at rat alpha7 nAChR expressed in Xenopus laevis assessed as inhibition of acetylcholine-induced current at holding potential of -80 mV up to 1 uM by two-electrode voltage clamp technique.
Data set [4] in a line: Stability assessed as half life of native globular conformation state in presence of reduced glutathione at 500 uM. Format: physicochemical. To be noted: solution with 500 uM reduced glutathione.
Data set [5] is described as follows: Stability assessed as loss of native globular conformation level in presence of reduced glutathione at 500 uM at 2 hrs. The format is physicochemical. The settings on record: solution with 500 uM reduced glutathione; read-out: Activity.
The target of data set [6] is Neuronal acetylcholine receptor subunit alpha-7 (Rattus norvegicus) (UniProt Q05941). In words: Activity at rat alpha7 nAChR expressed in Xenopus laevis assessed as inhibition of acetylcholine-induced current at holding potential of -80 mV up to 10 uM by two-electrode voltage clamp technique. (In two-electrode clamp one electrode senses voltage and the other passes current.)
Neuronal acetylcholine receptor subunit alpha-7 (Rattus norvegicus), sequence (Q05941 whole entry): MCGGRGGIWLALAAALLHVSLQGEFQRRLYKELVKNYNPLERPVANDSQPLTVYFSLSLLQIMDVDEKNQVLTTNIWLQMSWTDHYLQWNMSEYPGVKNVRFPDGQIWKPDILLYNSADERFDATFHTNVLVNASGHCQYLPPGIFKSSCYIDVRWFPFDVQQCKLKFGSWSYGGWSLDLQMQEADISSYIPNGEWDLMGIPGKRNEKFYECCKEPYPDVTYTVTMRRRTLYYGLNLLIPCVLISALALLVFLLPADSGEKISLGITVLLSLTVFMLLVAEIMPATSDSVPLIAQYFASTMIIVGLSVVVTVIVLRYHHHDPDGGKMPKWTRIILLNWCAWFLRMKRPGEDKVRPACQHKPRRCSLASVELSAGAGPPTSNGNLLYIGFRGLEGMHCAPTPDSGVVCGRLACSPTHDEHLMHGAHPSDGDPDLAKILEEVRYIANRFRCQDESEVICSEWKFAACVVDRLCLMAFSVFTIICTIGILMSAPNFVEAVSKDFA

The nature of another data set: physchem. The settings on record: solution with 500 uM reduced glutathione.
Data set [7] can be described thus: Stability assessed as native globular conformation level in presence of reduced glutathione at 500 uM at 24 hrs. The format is physicochemical. To be noted: solution with 500 uM reduced glutathione; read-out: Stability.

Neuronal acetylcholine receptor subunit alpha-7, sequence (Q05941 whole entry): as above

By IC50 is commonly meant the concentration that gives 50% inhibition. A higher IC50 goes with weaker potency in that assay. One may read the Ki as the dissociation constant of the complex between target and ligand, obtained from inhibition or displacement. Low values mean a stronger hold on the target, high ones a looser hold on the target. `CC(C)C[C@@H]1NC(=O)[C@H](CO)NC(=O)[C@@H]2CSSC[C@@H](C(=O)O)NC(=O)[C@H](Cc3ccc(O)cc3)NC(=O)[C@H](CC(=O)O)NC(=O)[C@@H]3CCCN3C(=O)[C@H](CC(N)=O)NC(=O)[C@H](CC(N)=O)NC(=O)[C@H](C)NC(=O)[C@H](C)NC(=O)[C@H](CSSC[C@H](NC(=O)CN)C(=O)N2)NC(=O)[C@@H]2CCCN2C(=O)[C@@H]2CCCN2C1=O` (H-GCCSLPPCAANNPDYC-OH; disulfide 2-8, 3-16) gave an IC50 in data set [1] of 252 nM. The compound further gave a Ki in data set [2] of 124 nM.
In data set [1], `CC(C)C[C@@H]1NC(=O)[C@H](C)NC(=O)[C@@H]2CSSC[C@H](NC(=O)CN)C(=O)N[C@@H](CSSC[C@@H](C(=O)O)NC(=O)[C@H](CC(N)=O)NC1=O)C(=O)N[C@@H](CO)C(=O)N[C@@H](CC(C)C)C(=O)N1CCC[C@H]1C(=O)N1CCC[C@H]1C(=O)N2` (H-GCCSLPPCALNC-OH; disulfide 2-8, 3-12) had an IC50 of over 10000 nM. In data set [2], this compound registered a Ki of 7900 nM. The result in data set [3] was inactive. Moreover, the half-life in data set [4] is under 0.5 h. In data set [5], the degraded at 2 h was over 80%.
`CC(C)C[C@@H]1NC(=O)[C@H](C)NC(=O)[C@@H]2CSSC[C@H](NC(=O)CN)C(=O)N[C@@H](CSSC[C@@H](C(=O)O)NC(=O)[C@H](CC(N)=O)NC(=O)[C@H](CC(N)=O)NC1=O)C(=O)N[C@@H](CO)C(=O)N[C@@H](CC(C)C)C(=O)N1CCC[C@H]1C(=O)N1CCC[C@H]1C(=O)N2` (H-GCCSLPPCALNNC-OH; disulfide 2-8, 3-13) yielded an IC50 in data set [1] of 207 nM. Besides, the affinity in data set [2], expressed as Ki, was 4500 nM. Further, the half-life in data set [4] is under 0.5 h. Further, the degraded at 2 h in data set [5] is over 80%.
The compound `CC(C)C[C@@H]1NC(=O)[C@H](C)NC(=O)[C@@H]2CSSC[C@H](NC(=O)CN)C(=O)N[C@@H](CSSC[C@@H](C(=O)O)NC(=O)[C@@H]3CCCN3C(=O)[C@H](CC(N)=O)NC(=O)[C@H](CC(N)=O)NC1=O)C(=O)N[C@@H](CO)C(=O)N[C@@H](CC(C)C)C(=O)N1CCC[C@H]1C(=O)N1CCC[C@H]1C(=O)N2` (H-GCCSLPPCALNNPC-OH; disulfide 2-8, 3-14) yielded an IC50 in data set [1] of 79 nM. This compound gave a Ki in data set [2] of 4600 nM. Also, the half-life in data set [4] was under 0.5 h. Further, the degraded at 2 h in data set [5] was over 80%.
As to `CC(C)C[C@@H]1NC(=O)[C@H](C)NC(=O)[C@@H]2CSSC[C@H](NC(=O)CN)C(=O)N[C@@H](CSSC[C@@H](C(=O)O)NC(=O)[C@H](CC(=O)O)NC(=O)[C@@H]3CCCN3C(=O)[C@H](CC(N)=O)NC(=O)[C@H](CC(N)=O)NC1=O)C(=O)N[C@@H](CO)C(=O)N[C@@H](CC(C)C)C(=O)N1CCC[C@H]1C(=O)N1CCC[C@H]1C(=O)N2` (H-GCCSLPPCALNNPDC-OH; disulfide 2-8, 3-15), half-maximal inhibition in data set [1] (IC50) required 115 nM. This compound showed a Ki in data set [2] of 3100 nM. Further, in data set [6], the result was inactive. In addition, the half-life in data set [4] is 2 h. The remaining at 8 h, 500 µM in “physchem” was determined as 40%.
`CC(C)C[C@@H]1NC(=O)[C@H](C)NC(=O)[C@@H]2CSSC[C@H](NC(=O)CN)C(=O)N[C@@H](CSSC[C@@H](C(=O)O)NC(=O)[C@H](CC(N)=O)NC1=O)C(=O)N[C@@H](CO)C(=O)N[C@@H](CC(C)C)C(=O)N1CCC[C@H]1C(=O)N[C@@H](CCCNC(=N)N)C(=O)N2` (H-GCCSLPRCALNC-OH; disulfide 2-8, 3-12): in data set [6], the outcome was inactive. Also, the half-life in data set [4] is 1 h. Further, the remaining at 24 h in data set [7] amounted to 40%.
